Test results as given in patent US9353107B2 (Aurigene Discovery Technologies Limited, priority 2012, dated 2016).
Where a name gives a salt, the structure may show the parent alone.

Target: T1, recombinant human ALK enzyme (ALK WT) (Homo sapiens, UniProt Q9UM73)
T1 construct: purchased Carna Biosciences 08-518
Experiment: ALK WT cell free enzymatic assay (TR-FRET)
Type: biochemical
Conditions: 1 μM ATP; for IC50: 10 point dose response; for inhibition at 0.1 µM: compound at 100 nM; for inhibition at 0.1 µM / inhibition at 1 µM: 30 min pre-incubation; for inhibition at 1 µM: compound at 1 μM
Procedure: ALK Wild Type (WT) The ALK WT cell free assay was set up to evaluate the effects of these compounds as inhibitors of ALK enzyme. The enzymatic assay was standardized using recombinant human ALK enzyme (Cat#08-518) from Carna Biosciences using Ultra Light Poly GT (Cat# TRF 0100D) from Perkin Elmer as a substrate. TR-FRET (Time resolved fluorescence resonance energy transfer) detection technology was used for the read out. The final assay conditions were 50 mM HEPES pH 7.1, 10 mM MgCl2, 2 mM MnCl2, 0.01% BSA, 2.5 mM DTT, 0.1 mM Na3 VO4, 40 nM Ultra Light Poly GT, 2.5 ng ALK WT enzyme, 1 μM ATP and 125 nM Lance Eu-W1024 labeled anti phospho tyrosine antibody (Cat# AD0203, Perkin Elmer) in 384 well format. The assay reaction time with the substrate was 30 minutes after which the antibody detection mix is added. The TR-FRET signal (Excitation at 340 nm, Emission at 615 nm and 665 nm) was read with 50 μs delay time on Victor^3 V fluorimeter. The data is calculated using the ratio of reading at 665 nM to 615 nM. The final concentration of DMSO was 1% in the assay. Compounds were screened at 100 nM and 1 μM concentrations with pre-incubation of the enzymes with compound for 30 minutes. Each individual IC50 was determined using 10 point dose response curve generated by GraphPad Prism software Version 4 (San Diego, Calif., USA) using non linear regression curve fit for sigmoidal dose response (variable slope). Percentage inhibition at concentrations of 100 nM and 1.0 μM are given in table along with the IC50 (nM) details for selected examples.

T1 sequence (Q9UM73 1058-1620 limits assumed): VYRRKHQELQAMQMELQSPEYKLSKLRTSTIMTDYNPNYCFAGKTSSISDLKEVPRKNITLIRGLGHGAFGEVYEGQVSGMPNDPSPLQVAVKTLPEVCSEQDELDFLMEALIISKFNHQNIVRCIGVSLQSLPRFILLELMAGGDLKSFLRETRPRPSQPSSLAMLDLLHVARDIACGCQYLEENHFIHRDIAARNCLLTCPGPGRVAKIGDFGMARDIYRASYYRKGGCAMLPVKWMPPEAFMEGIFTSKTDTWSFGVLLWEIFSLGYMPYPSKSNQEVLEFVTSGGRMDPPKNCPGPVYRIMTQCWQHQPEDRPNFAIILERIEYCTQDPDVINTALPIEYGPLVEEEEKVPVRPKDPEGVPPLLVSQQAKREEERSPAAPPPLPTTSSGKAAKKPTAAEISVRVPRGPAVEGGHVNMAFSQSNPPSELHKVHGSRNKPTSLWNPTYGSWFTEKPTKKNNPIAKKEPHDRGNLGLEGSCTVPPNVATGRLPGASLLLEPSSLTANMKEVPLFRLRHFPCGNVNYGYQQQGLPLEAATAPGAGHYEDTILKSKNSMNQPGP

IC50 [nM]	inhibition at 0.1 µM [%]	inhibition at 1 µM [%]	SMILES
< 50	62	87	COc1ccc(-c2cnc3[nH]cc(-c4c(C)nn(Cc5cc(F)ccc5F)c4C)c3c2)cc1NS(C)(=O)=O [Example 22, N-(5-(3-(1-(2,5-difluorobenzyl)-3,5-dimethyl-1H-pyrazol-4-yl)-1H-pyrrolo[2,3-b]pyridin-5-yl)-2-methoxyphenyl)methanesulfonamide]
50 to 250	73	99	Cc1nn(Cc2cccc(F)c2)c(C)c1-c1c[nH]c2ncc(-c3ccc(OCCN(C)C)c(NS(C)(=O)=O)c3)cc12 [Example 23, N-(2-(2-(dimethylamino)ethoxy)-5-(3-(1-(3-fluorobenzyl)-3,5-dimethyl-1H-pyrazol-4-yl)-1H-pyrrolo[2,3-b]pyridin-5-yl)phenyl)methanesulfonamide]
< 50	53	96	Cc1nn(Cc2cccc(F)c2)c(C)c1-c1c[nH]c2ncc(-c3ccc(OCCO)c(NS(C)(=O)=O)c3)cc12 [Example 24, N-(5-(3-(1-(3-fluorobenzyl)-3,5-dimethyl-1H-pyrazol-4-yl)-1H-pyrrolo[2,3-b]pyridin-5-yl)-2-(2-hydroxyethoxyl)phenyl)methanesulfonamide]
< 50	86	93	Cc1nn(Cc2cccc(F)c2)c(C)c1-c1c[nH]c2ncc(-c3ccc(OCCCO)c(NS(C)(=O)=O)c3)cc12 [Example 25, N-(5-(3-(1-(3-fluorobenzyl)-3,5-dimethyl-1H-pyrazol-4-yl)-1H-pyrrolo[2,3-b]pyridin-5-yl)-2-(3-hydroxypropoxyl)phenyl)methanesulfonamide]
< 50	96	100	Cc1nn(Cc2cccc(F)c2)c(C)c1-c1c[nH]c2ncc(-c3ccc(OCCCN(C)C)c(NS(C)(=O)=O)c3)cc12 [Example 26, N-(2-(3-(dimethylamino)propoxy)-5-(3-(1-(3-fluorobenzyl)-3,5-dimethyl-1H-pyrazol-4-yl)-1H-pyrrolo[2,3-b]pyridin-5-yl)phenyl)methanesulfonamide]
–	9	8	COc1ccc(-c2cc3c(-c4c(C)nn(Cc5cc(F)cc(F)c5)c4C)c[nH]c3nc2C2CC2)cc1NS(C)(=O)=O [Example 27, N-(5-(6-cyclopropyl-3-(1-(3,5-difluorobenzyl)-3,5-dimethyl-1H-pyrazol-4-yl)-1H-pyrrolo[2,3-b]pyridin-5-yl)-2-methoxyphenyl)methanesulfonamide]
–	14	49	COc1ccc(-c2cc3c(-c4c(C)nn(Cc5cccc(F)c5)c4C)c[nH]c3nc2C2CC2)cc1NS(C)(=O)=O [Example 28, N-(5-(6-cyclopropyl-3-(1-(3-fluorobenzyl)-3,5-dimethyl-1H-pyrazol-4-yl)-1H-pyrrolo[2,3-b]pyridin-5-yl)-2-methoxyphenyl)methanesulfonamide]
–	28	48	COc1ccc(-c2cnc3[nH]cc(-c4c(C)nn(Cc5cccc(F)c5)c4C)c3c2)c(OC)c1NS(C)(=O)=O [Example 29, N-(3-(3-(1-(3-fluorobenzyl)-3,5-dimethyl-1H-pyrazol-4-yl)-1H-pyrrolo[2,3-b]pyridin-5-yl)-2,6-dimethoxyphenyl)methanesulfonamide]
–	21	21	COc1ccc(-c2cnc3[nH]c(C4CC4)c(-c4c(C)nn(Cc5cccc(F)c5)c4C)c3c2)cc1NS(C)(=O)=O [Example 30, N-(5-(2-cyclopropyl-3-(1-(3-fluorobenzyl)-3,5-dimethyl-1H-pyrazol-4-yl)-1H-pyrrolo[2,3-b]pyridin-5-yl)-2-methoxyphenyl)methanesulfonamide]
> 250	–	55	CC(C)(C)OC(=O)N1CCN(c2cccc(-c3cnc4[nH]cc(-c5cnn(Cc6cc(F)ccc6F)c5)c4c3)c2)CC1 [Example 31, tert-butyl 4-(3-(3-(1-(2,5-difluorobenzyl)-1 h-pyrazol-4-yl)-1 h-pyrrolo[2,3-b]pyridin-5-yl)phenyl)piperazine-1-carboxylate]
< 50	–	99	Fc1ccc(F)c(Cn2cc(-c3c[nH]c4ncc(-c5cccc(N6CCNCC6)c5)cc34)cn2)c1 [Example 32, 3-(1-(2,5-difluorobenzyl)-1H-pyrazol-4-yl)-5-(3-(piperazin-1-yl)phenyl)-1H-pyrrolo[2,3-b]pyridine]
< 50	97	100	Fc1cccc(Cn2cc(-c3c[nH]c4ncc(-c5cccc(N6CCNCC6)c5)cc34)cn2)c1 [Example 33, 3-(1-(3-fluorobenzyl)-1H-pyrazol-4-yl)-5-(3-(piperazin-1-yl)phenyl)-1H-pyrrolo[2,3-b]pyridine hydrochloride]
< 50	91	99	N#CCCN1CCN(c2cccc(-c3cnc4[nH]cc(-c5cnn(Cc6cccc(F)c6)c5)c4c3)c2)CC1 [Example 34, 3-(4-(3-(3-(1-(3-fluorobenzyl)-1H-pyrazol-4-yl)-1H-pyrrolo[2,3-b]pyridin-5-yl)phenyl)piperazin-1-yl) propanenitrile]
< 50	98	99	CC(C)N1CCN(c2cccc(-c3cnc4[nH]cc(-c5cnn(Cc6cccc(F)c6)c5)c4c3)c2)CC1 [Example 35, 3-(1-(3-fluorobenzyl)-1H-pyrazol-4-yl)-5-(3-(4-isopropylpiperazin-1-yl)phenyl)-1H-pyrrolo[2,3-b]pyridine]
< 50	96	99	CN1CCN(c2cccc(-c3cnc4[nH]cc(-c5cnn(Cc6cccc(F)c6)c5)c4c3)c2)CC1 [Example 36, 3-(1-(3-fluorobenzyl)-1H-pyrazol-4-yl)-5-(3-(4-methylpiperazin-1-yl)phenyl)-1H-pyrrolo[2,3-b]pyridine]
< 50	93	98	Cc1nn(Cc2cccc(F)c2)cc1-c1c[nH]c2ncc(-c3cccc(N4CCNCC4)c3)cc12 [Example 37, 3-(1-(3-fluorobenzyl)-3-methyl-1H-pyrazol-4-yl)-5-(3-(piperazin-1-yl)phenyl)-1H-pyrrolo[2,3-b]pyridine]
< 50	87	99	Cc1nn(Cc2cccc(F)c2)c(C)c1-c1c[nH]c2ncc(-c3cccc(N4CCNCC4)c3)cc12 [Example 38, 3-(1-(3-fluorobenzyl)-3,5-dimethyl-1H-pyrazol-4-yl)-5-(3-(piperazin-1-yl)phenyl)-1H-pyrrolo[2,3-b]pyridine]
< 50	92	99	Fc1cccc(Cn2cc(-c3c[nH]c4ncc(-c5ccc(N6CCNCC6)cc5)cc34)cn2)c1 [Example 39, 3-(1-(3-fluorobenzyl)-1H-pyrazol-4-yl)-5-(4-(piperazin-1-yl)phenyl)-1H-pyrrolo[2,3-b]pyridine hydrochloride]
< 50	94	100	Cc1nn(Cc2cccc(F)c2)c(C)c1-c1c[nH]c2ncc(-c3ccc(N4CCNCC4)cc3)cc12 [Example 40, 3-(1-(3-fluorobenzyl)-3,5-dimethyl-1H-pyrazol-4-yl)-5-(4-(piperazin-1-yl)phenyl)-1H-pyrrolo[2,3-b]pyridine hydrochloride]
< 50	90	100	Cc1nn(Cc2cccc(F)c2)c(C)c1-c1c[nH]c2ncc(-c3ccc(N4CCN(CCO)CC4)cc3)cc12 [Example 41, 2-(4-(4-(3-(1-(3-fluorobenzyl)-3,5-dimethyl-1H-pyrazol-4-yl)-1H-pyrrolo[2,3-b]pyridin-5-yl)phenyl)piperazin-1-yl)ethanol]
< 50	92	100	Cc1nn(Cc2cc(F)ccc2F)c(C)c1-c1c[nH]c2ncc(-c3ccc(N4CCNCC4)cc3)cc12 [Example 42, 3-(1-(2,5-difluorobenzyl)-3,5-dimethyl-1H-pyrazol-4-yl)-5-(4-(piperazin-1-yl)phenyl)-1H-pyrrolo[2,3-b]pyridine hydrochloride]
< 50	92	99	Cc1nn(Cc2cc(F)cc(F)c2)c(C)c1-c1c[nH]c2ncc(-c3ccc(N4CCNCC4)cc3)cc12 [Example 43, 3-(1-(3,5-difluorobenzyl)-3,5-dimethyl-1H-pyrazol-4-yl)-5-(4-(piperazin-1-yl)phenyl)-1H-pyrrolo[2,3-b]pyridine hydrochloride]
< 50	95	100	Cc1c(-c2c[nH]c3ncc(-c4ccc(N5CCNCC5)cc4)cc23)cnn1Cc1cccc(F)c1 [Example 44, 3-(1-(3-fluorobenzyl)-5-methyl-1H-pyrazol-4-yl)-5-(4-(piperazin-1-yl)phenyl)-1H-pyrrolo[2,3-b]pyridine hydrochloride]
